From patent publication US20090197922A1, “COMPOSITIONS AND METHODS FOR TREATING PULMONARY HYPERTENSION” (The University of Chicago, priority 2006, published 2009)
Entries after “also recorded” stand apart in the source; their conditions may differ.

Tests used:
[1] = system: hypoxia-induced model of pulmonary hypertension in Dahl SS rats; test: Hemodynamic study (pressures, RV/LV weights) in hypoxia/SU5416 model of pulmonary hypertension; type: in vivo, rat; conditions: for BP mmHg (+/−) SE / PA mmHg (+/−) SE / RVSP mmHg (+/−) SE: 3½ Wk hypoxia (10% FiO2), sorafenib daily 2.5 mg/Kg, SU5416 day zero 20 mg/kg, 2 experiments as one cohort; for development of pulmonary hypertension (right ventricular and pulmonary artery pressures, right ventricle/left ventricular weights): hypoxia 10% FiO2, 3 weeks, SU5416 20 mg/kg once, sorafenib by gavage daily
Procedure: As part of the spectrum of sorafenib's pharmacologic activity overlaps with SU5416, a study was performed to determine whether sorafenib had similar effects or with additional mechanisms of inhibitory activity could counteract the effects of SU5416. Dahl Salt Sensitive rats were divided into 5 groups: normoxia+vehicle (normal, healthy control), hypoxia+SU5416 (positive control), hypoxia+sorafenib (safety comparison with SU5416), and hypoxia+sorafenib+SU5416 (therapeutic activity assessment). Echocardiograms were performed on all rats at the start of the study. Except for the normoxia group, all rats were maintained in a hypoxia chamber with a partial pressure of oxygen of 10% FiO2 for the duration of the study. Rats in the two SU5416 groups received one subcutaneous injection of SU5416 at the start of the study (20 mg/kg). Stock sorafenib solutions were prepared every three days, crushing and dissolving sorafenib tablets in EL/ethanol (50:50; Sigma Cremophor EL, 95% ethyl alcohol) at final concentration of 4 mg/mL, protected from light exposure and stored at room temperature. Final dosing solutions were prepared on the day of use by dilution of the stock solution to 1 mg/mL with water and administered by gavage to the rats daily. […] Organ and blood specimens were obtained for further evaluation. […] RV 3DE measurements were also determined (diameters+area), A=RV major diameter, B=RV annulus diastolic diameter & area, C=RV at ⅓ RV major diameter & area, D=RV at ⅔ RV major diameter & area.
(§1) Protocol includes an initial administration of SU5416 subcutaneously at 20 mg/kg followed daily by sorenfenib oral daily doses of 2.5 mg/kg. Some animals were exposed to chronic hypoxia (10% O2). The animals were divided into five experimental groups: hypoxia+sorafenib; hypoxia+SU5416+sorafenib, normoxia+vehicle control; Hypoxia+vehicle; and hypoxia+SU5416. PAP, RVSP, Echo, and DNA microarrays were used to measure various physiological and molecular biological parameters. FIG. 4 illustrates that hypoxia/SU5416-induces increases in right heart pressures and right heart hypertrophy (RV/LV+Septum).
Fifteen Dahl Salt Sensitive strain rats were divided into 5 groups: normoxia+vehicle (normal, healthy control), hypoxia+vehicle (hypoxia control), hypoxia+SU5416 (positive control), hypoxia+sorafenib (safety comparison with SU5416), and hypoxia+sorafenib+SU5416 (therapeutic activity assessment). Echocardiograms were performed on all rats at the start of the experiment. Except for the normoxia group, all rats were maintained in a hypoxia chamber with a partial pressure of oxygen of 10% FiO2 for the duration of the experiment. Rats in the 2 SU5416 groups received one subcutaneous injection of SU5416 at the start of the experiment (20 mg/kg). Stock sorafenib solutions were prepared every three days, crushing and dissolving sorafenib tablets in EL/ethanol (50:50; Sigma Cremophor EL, 95% ethyl alcohol) at final concentration of 4 mg/mL, protected from light exposure and stored at room temperature. Final dosing solutions were prepared on the day of use by dilution of the stock solution to 1 mg/mL with water and administered by gavage to the rats daily. […] Organ and blood specimens were obtained for further evaluation.

[2] = Body weight of rats in hypoxia/SU5416 study; type: in vivo, rat; conditions: Dahl SS rats
Procedure: (§2) Fifteen Dahl Salt Sensitive strain rats were divided into 5 groups: normoxia+vehicle (normal, healthy control), hypoxia+vehicle (hypoxia control), hypoxia+SU5416 (positive control), hypoxia+sorafenib (safety comparison with SU5416), and hypoxia+sorafenib+SU5416 (therapeutic activity assessment). Echocardiograms were performed on all rats at the start of the experiment. Except for the normoxia group, all rats were maintained in a hypoxia chamber with a partial pressure of oxygen of 10% FiO2 for the duration of the experiment. Rats in the 2 SU5416 groups received one subcutaneous injection of SU5416 at the start of the experiment (20 mg/kg). Stock sorafenib solutions were prepared every three days, crushing and dissolving sorafenib tablets in EL/ethanol (50:50; Sigma Cremophor EL, 95% ethyl alcohol) at final concentration of 4 mg/mL, protected from light exposure and stored at room temperature. Final dosing solutions were prepared on the day of use by dilution of the stock solution to 1 mg/mL with water and administered by gavage to the rats daily. After 3 weeks, all rats had echocardiography and hemodynamic studies. Organ and blood specimens were obtained for further evaluation.

[3] = system: hypoxia-induced model of pulmonary hypertension in Dahl SS rats; conditions: previously demonstrated; cited from earlier work
[4] = system: hypoxia-induced model of pulmonary hypertension in Dahl SS rats; test: Echocardiography in hypoxia/SU5416 model of pulmonary hypertension; type: in vivo, rat; set-up: CO (PA): unit not given beside the values; RVAW / LVPW / CO (Ao) / MPA: unit not given here; conditions: echocardiogram
Procedure: As part of the spectrum of sorafenib's pharmacologic activity overlaps with SU5416, a study was performed to determine whether sorafenib had similar effects or with additional mechanisms of inhibitory activity could counteract the effects of SU5416. […] Echocardiograms were performed on all rats at the start of the study. Except for the normoxia group, all rats were maintained in a hypoxia chamber with a partial pressure of oxygen of 10% FiO2 for the duration of the study. Rats in the two SU5416 groups received one subcutaneous injection of SU5416 at the start of the study (20 mg/kg). Stock sorafenib solutions were prepared every three days, crushing and dissolving sorafenib tablets in EL/ethanol (50:50; Sigma Cremophor EL, 95% ethyl alcohol) at final concentration of 4 mg/mL, protected from light exposure and stored at room temperature. Final dosing solutions were prepared on the day of use by dilution of the stock solution to 1 mg/mL with water and administered by gavage to the rats daily. After 3 weeks, all rats had echocardiography and hemodynamic studies. Organ and blood specimens were obtained for further evaluation. […] RV 3DE measurements were also determined (diameters+area), A=RV major diameter, B=RV annulus diastolic diameter & area, C=RV at ⅓ RV major diameter & area, D=RV at ⅔ RV major diameter & area.
as §2, with “Echocardiograms” for “Fifteen Dahl Salt Sensitive strain rats were divided into 5 groups: normoxia+vehicle (normal, healthy control), hypoxia+vehicle (hypoxia control), hypoxia+SU5416 (positive control), hypoxia+sorafenib (safety comparison with SU5416), and hypoxia+sorafenib+SU5416 (therapeutic activity assessment). Echocardiograms”

rat lung vasculature = test: Rat lung histopathology (H&E sections, Heath-Edwards grading); type: in vivo; conditions: Dahl SS rats, Hypoxia+SU5416+Sorafenib vs Hypoxia+SU5416, H/E sections
Procedure: The Heath-Edwards grading system grades pulmonary hypertension by microscopic features. The general classification is as follows:
as §1

rat lung tissue = test: Expression profiling of rat lung tissue RNA (Rat Chip II, Affymetrix); type: in vivo; conditions: compared to normoxia; GCRMA normalization, SAM (δ>0.639, minimum fold change>1.7)
Source text: To study potential mechanisms of sorafenib effects on PH RNA was isolated from rat lung tissue and analyzed using the Rat Chip II (Affymetrix). […] Mechanisms of PAH pathobiology is poorly understood therefore, to explore potential mechanistic pathways the inventors conducted bioinformatic studies and expression profiling. […] The candidate genes identified fell into various gene ontology classes, for example 4% were in the lung development and growth factors class (e.g., Bambi, Tgfb3, Ltbp2), 13% in the cell migration/ECM class (e.g., Itga3_predicted, Cspg4, Cxcll2, Reln, Col18a1, Cthrc1, Hmgcr, Cnn1, Col6a2, Jag2), 4% in the apoptosis class (e.g., Anzal, Col18a1, Jag2), 4% in the smooth muscle/fiber formation class (e.g., Des, Tpm3, Jph2), 10% in the cell proliferation class (e.g., Anxal, Timp1, Lamb—1 predicted, Cspg4, Cxcll2, Gja4, Jag2, Tgfb3), 6% in the blood vessel development class (e.g., Cxcll2, Cspg4, Gja4, Col18a1, Serpine1), and 5% in the angiogenesis class (Cxcl12, Cspg4, Col18a1, Serpine1).

[5] = cited from earlier work
[6] = room temperature and neutral pH; cited from earlier work
[7] = Wade et al., 2004; cited from earlier work
PAH patients = conditions: case report, combination therapy with imatinib at 3 and 6 months; cited from earlier work
[8] = PRE (baseline at start of experiment)

SMILES	BP mmHg (+/−) SE [1]	PA mmHg (+/−) SE [1]	RVSP mmHg (+/−) SE [1]	development of pulmonary hypertension (right ventricular and pulmonary artery pressures, right ventricle/left ventricular weights) [1]	Wt ([2]; POST (after 3 weeks hypoxia)) [g]	Wt [2, 8] [g]	CI (Ao) ([4]; POST (after 3 weeks hypoxia))	CI(PA) ([4]; POST (after 3 weeks hypoxia))	CO (Ao) ([4]; POST (after 3 weeks hypoxia))	CO (PA) ([4]; POST (after 3 weeks hypoxia))	FS (%) ([4]; POST (after 3 weeks hypoxia))	LV Mass (gram) ([4]; POST (after 3 weeks hypoxia))	LVPW ([4]; POST (after 3 weeks hypoxia))	MPA ([4]; POST (after 3 weeks hypoxia))	PA PG (mmHg) ([4]; POST (after 3 weeks hypoxia))	TV max PG (mmHg) ([4]; POST (after 3 weeks hypoxia))	CI (Ao) [4, 8]	CI(PA) [4, 8]	CO (Ao) [4, 8]	CO (PA) [4, 8]	further results
Cc1cc(C)c(/C=C2\C(=O)Nc3ccccc32)[nH]1 [SU5416]	78 +/− 4 mmHg	33 +/− 3 mmHg	30 +/− 4 mmHg	developed pulmonary hypertension	324 ± 22	328 ± 11	0.82 ± 0.22	0.87 ± 0.14	261 ± 55	279 ± 69	63 ± 4	1.25 ± 0.33	0.16 ± 0.02	0.41 ± 0.05	2.05 ± 0.92	5.63 ± 4.07	0.95 ± 0.06	1.21 ± 0.26	310 ± 10	400 ± 99	effect on pulmonary hypertension in hypoxic rats (previous reports) [3]: exacerbate pulmonary hypertension; RVAW ([4]; POST (after 3 weeks hypoxia)): 0.16 ± 0.03; FS (%) [4, 8]: 71 ± 11%; LV Mass (gram) [4, 8]: 1.30 ± 0.14 gram; LVPW [4, 8]: 0.16 ± 0.04; MPA [4, 8]: 0.45 ± 0.01; PA PG (mmHg) [4, 8]: 3.65 ± 2.76 mmHg; RVAW [4, 8]: 0.07
CNC(=O)c1cc(Oc2ccc(NC(=O)Nc3ccc(Cl)c(C(F)(F)F)c3)cc2)ccn1 [Sorafenib]	97 +/− 4 mmHg	18 +/− 2 mmHg	17 +/− 2 mmHg	attenuated physiologic and histopathologic changes in PAH; also recorded: protect SU5416-treated hypoxia-exposed rats from pulmonary arterial hypertension	331 ± 15	328 ± 10	1.00 ± 0.80	0.82 ± 0.17	326 ± 246	271 ± 48	68 ± 20	1.30 ± 0.10	0.18 ± 0.03	0.38 ± 0.07	3.87 ± 0.95	4.85 ± 3.46	1.77 ± 1.30	1.70 ± 1.43	577 ± 418	551 ± 467	development of pulmonary hypertension (right ventricular and pulmonary artery pressures, right ventricle/left ventricular weights) ([1]; listed as sorafenib): prevents hypoxia+SU5416 induced pulmonary hypertension and remodeling; also recorded: no significant change in pressures or weights; also recorded: does not exacerbate hypoxia-induced hypertension; development of pulmonary hypertension (right ventricular and pulmonary artery pressures, right ventricle/left ventricular weights) ([1]; listed as sorefenib): did not develop evidence of PAH; right heart hypertrophy (RV/LV+Septum) ([1]; hypoxia+SU5416, sorafenib oral daily 2.5 mg/kg): prevented hypoxia+SU5416 development of right heart hypertrophy; remodeling of the lung vasculature (histopathology, Heath-Edwards grading) (rat lung vasculature): Prevents Remodeling; remodeling of the lung vasculature (histopathology, Heath-Edwards grading) (rat lung vasculature; listed as sorafenib): dramatic improvement; genes differentially regulated (rat lung tissue): at least 179 genes; FS (%) [4, 8]: 78 ± 5%; LV Mass (gram) [4, 8]: 1.60 ± 0.30 gram; LVPW [4, 8]: 0.21 ± 0.03; MPA [4, 8]: 0.48 ± 0.07; PA PG (mmHg) [4, 8]: 6.10 ± 5.52 mmHg; RVAW [4, 8]: 0.11; MTD ([5]; known MTD, oral): 400 mg twice daily; drug interactions with warfarin or digoxin ([5]; previous sorafenib studies): have not demonstrated known drug interactions
CCCCC[C@H](O)CC[C@@H]1[C@H]2Cc3cccc(OCC(=O)O)c3C[C@H]2C[C@H]1O [Treprostinil]																					chemical stability [6]: chemically stable at room temperature and neutral pH; half-life [7]: 3 to 4 h
Cc1ccc(NC(=O)c2ccc(CN3CCN(C)CC3)cc2)cc1Nc1nccc(-c2cccnc2)n1 [imatinib]																					improvement in 6MW (PAH patients): 60%
